pEC50, pIC50, pKi: −log10 of the molar value. ≈ marks a conversion by molar mass, not a printed value. Where “and” joins values, the source holds several entries; their conditions need not be identical. Equal entries are not always repeated.
How the values were obtained:
[1] = Brain permeability (plasma and brain levels by LC-MS/MS) after i.v. injection; type: in vivo; conditions: rats, 5 mg/kg i.v., 5 min and 1 hr
Protocol: Rats (n=6) were killed at 5 min and 1 hr after i.v. administration, and brain and plasma were collected for blood-brain barrier (BBB) penetration analysis. The concentrations of each compound in plasma (A) and brain (B) were determined by LC-MS/MS (liquid chromatography-tandem mass spectrometry). The brain/plasma ratio (B/P ratio) (C) is calculated at each time point.

[2] = test system: mouse bone marrow-derived primary macrophages (mBMMs); experiment: LPS- or poly(I:C)-induced pro-inflammatory gene expression in mBMMs; type: cell-based; conditions: CQ 10 μM, SPV-94 1 μM
Excerpt: (§1) Besides the role as an activator of DAergic genes, Nurr1 is known as a repressor of inflammatory genes in astrocytes and microglia (See Saijo et al., Cell 2009, 137, 47-59).

[3] = test system: Nurr1-LBD and full-length Nurr1; experiment: Luciferase activity assay (Nurr1 transactivation) in N27-A cells; type: cell-based, murine
Nurr1-LBD [4] = target: T1, Nurr1-LBD (Homo sapiens, UniProt P43354); experiment: Radioligand competition binding assay using [3H]-CQ
N27-A cells [5] = experiment: Starvation-induced autophagy and Nurr1 expression in N27-A cells with or without MPP+; type: cell-based
Protocol: LC3B, p62 and Nurr1 expression levels determined by Western blot (D) were quantified.
Next, autophagy regulation was assessed in a dopaminergic cell line N27-A in the absence or presence of MPP^+ (1 mM). […] Furthermore, it was observed that MPP disrupted autophagy showing accumulated LC3B-II and remained p62 at the late-stage, which corresponds to the previous studies (See Lim et al., Autophagy 2011, 7, 51-60; Hung et al., PLoS ONE 2014, 9, e91074; Park et al., J Biol Chem 2016, 291, 3531-3540).
Referring to FIGS. 10D-10G, N27-A cells were treated with vehicle or MPP+ (1 mM) for 24 hrs and then changed with fresh growth medium with or without MPP+ 1 hr before starvation. […] To induce autophagy, N27-A cells were incubated in EBSS for 0-4 hrs, in the absence or presence of MPP+. Samples were analyzed by Western blot using autophagic flux markers LC3B and p62 (D) and its expression levels were quantified (10E and 10F). […] (10G) Nurr1 expression level changes were also analyzed and quantified.

Nurr1-LBD [6] = target: T1, Nurr1-LBD; experiment: Luciferase activity assay (p4xNL3-Luc reporter) with Nurr1-LBD in SK-N-BE(2)C cells; type: cell-based; parameters: expressed in transfected cells; host or cells: SK-N-BE(2)C human neuroblastoma cells
[7] = test system: mouse embryonic ventral mesencephalic (mVM) primary neurons; experiment: Dopaminergic gene expression in mVM primary neurons with or without 6-OHDA; type: cell-based
Protocol: FIGS. 8A-8D show dopaminergic (DAergic) gene expressions in the absence or presence of 6-OHDA (20 μM) in mouse embryonic ventral mesencephalic (mVM) primary neurons derived from embryonic day 12.5 (E12.5).

[8] = test system: MPTP-induced PD model mice; conditions: mouse, in vivo
Protocol: (§2) Sub-chronic MPTP regimen (30 mg/kg/day, 5 days) was introduced.

MN9D cells [9] = experiment: Protection against MPP+-induced toxicity in MN9D cells (MTT reduction, LDH release)
Protocol: (§3) Cell viability and cytotoxicity were measured by MTT (3-(4,5-dimethylthiazol-2-yl)-2,5-diphenyltetrazolium bromide) reduction assay.
(§4) Cell viability and cytotoxicity were measured by lactate dehydrogenase (LDH) release assay.

full-length Nurr1 = target: T2, full-length Nurr1 (Homo sapiens, UniProt P43354); experiment: Luciferase activity assay (p4xNL3-Luc reporter) with full-length Nurr1 in SK-N-BE(2)C cells; type: cell-based
T2 construct: expressed in transfected cells; host or cells: SK-N-BE(2)C human neuroblastoma cells

HeLa cells = experiment: Starvation-induced autophagy in HeLa cells (Western blot of LC3B and p62); type: cell-based; conditions: EBSS 0-4 hrs, BafA1 10 nM, CQ 20 μM, SPV-94 1 μM
Protocol: To limit basal autophagy, cells were incubated in fresh growth medium for 1 hr before starvation. Samples were analyzed by Western blot using autophagic flux markers LC3B and p62 (A) and its expression levels were quantified (10B and 10C).

Nurr1 = target: T3, Nurr1 (Homo sapiens, UniProt P43354); experiment: Relative luciferase activity versus previously reported compounds in SK-N-BE(2)C cells; type: cell-based; conditions: compared with control, AQ, CQ, SM-485, ATH-393, SR-175
T3 construct: expressed in transfected cells; host or cells: SK-N-BE(2)C cells
Excerpt: Each bar indicates Mean±SEM from three independent experiments.

[10] = test system: Nurr1-LBD and full-length Nurr1; experiment: Luciferase activity assay (Nurr1 transactivation) in MN9D cells; type: cell-based, murine
BV2 cells = experiment: LPS-induced TNFα mRNA expression in BV2 cells (real-time PCR); type: cell-based, mouse; conditions: LPS 1 μg/ml, compound 1 μM
Excerpt: as §1

MN9D cells [11] = test system: MN9D cells
Protocol: as §3, §4

N27-A cells [12] = experiment: Protection against MPP+-induced toxicity in N27-A cells (MTT, LDH); conditions: 1 mM MPP+
[13] = test system: MPTP-induced PD model mice; experiment: Sub-chronic MPTP-induced mice model of PD
Protocol: as §2

[14] = pH 7.4
[15] = L-DOPA 50, CQ 40, SPV-94 5 mg/kg/day

T1 sequence (P43354 360-595 limits assumed): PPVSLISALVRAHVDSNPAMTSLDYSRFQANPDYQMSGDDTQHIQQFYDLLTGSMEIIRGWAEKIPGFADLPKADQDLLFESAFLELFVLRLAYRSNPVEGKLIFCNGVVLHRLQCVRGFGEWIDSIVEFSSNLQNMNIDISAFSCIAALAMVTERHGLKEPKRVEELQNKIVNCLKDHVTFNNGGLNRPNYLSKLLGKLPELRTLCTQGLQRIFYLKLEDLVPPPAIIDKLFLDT
T2 sequence (P43354 whole entry): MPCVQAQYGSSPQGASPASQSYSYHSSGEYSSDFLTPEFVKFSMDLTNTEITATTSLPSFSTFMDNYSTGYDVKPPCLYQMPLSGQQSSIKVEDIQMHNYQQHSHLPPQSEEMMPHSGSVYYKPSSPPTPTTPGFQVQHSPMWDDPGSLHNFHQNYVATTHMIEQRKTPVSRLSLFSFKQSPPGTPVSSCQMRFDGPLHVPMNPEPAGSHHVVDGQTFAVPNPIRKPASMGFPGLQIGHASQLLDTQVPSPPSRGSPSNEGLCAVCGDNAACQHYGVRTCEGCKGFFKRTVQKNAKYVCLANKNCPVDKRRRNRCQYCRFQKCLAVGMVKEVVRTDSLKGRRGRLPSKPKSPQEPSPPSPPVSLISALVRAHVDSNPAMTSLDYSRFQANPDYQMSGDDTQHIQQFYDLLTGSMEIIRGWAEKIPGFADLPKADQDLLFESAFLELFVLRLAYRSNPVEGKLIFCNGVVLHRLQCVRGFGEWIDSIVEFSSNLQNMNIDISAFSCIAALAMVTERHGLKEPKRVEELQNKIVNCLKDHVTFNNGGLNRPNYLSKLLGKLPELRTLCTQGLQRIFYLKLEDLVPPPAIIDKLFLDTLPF
T3 sequence (P43354 whole entry): as above

CCN1CCN(c2cc(NCCNc3ccnc4cc(Cl)ccc34)nc(N3CCN(CC)CC3)n2)CC1 [SPV-94]
penetration into the brain (brain and plasma concentration, B/P ratio) [1]: penetrated into the brain slower than CQ and consistently maintained its level
LPS- or poly(I:C)-induced pro-inflammatory gene expressions (TNFα, iNOS, IL-1β, IL-6) [2]: dramatically suppressed all four pro-inflammatory gene expressions
pEC50 [3]: ~7.30
transcriptional activities of Nurr1-LBD and full-length Nurr1 [3]: enhanced transcriptional activities
pKi (Nurr1-LBD [4]): 7.96
pIC50 (Nurr1-LBD [4]; 1,000 nM [3H]-CQ, 0.2 μM Nurr1-LBD, estimated, read-out: half maximal inhibitory concentration (IC50), competition with [3H]-CQ for binding to Nurr1-LBD): 7.30
times higher affinity to Nurr1-LBD than CQ, based on IC50s (Nurr1-LBD [4]; versus CQ): 20 times
basal Nurr1 expression level compared to VEH (N27-A cells [5]; CQ 20 μM, SPV-94 1 μM): significantly higher
MPP+-induced autophagy dysregulation (p62 degradation) (N27-A cells [5]; MPP+ 1 mM): seemed to protect N27-A cells from MPP+-induced autophagy dysregulation leading to successful p62 degradation
Nurr1 expression against MPP+ (N27-A cells [5]; MPP+ 1 mM, SPV-94 1 μM): maintained Nurr1 expression against MPP+
autophagy termination (LC3B, p62) (N27-A cells [5]; starvation 0-4 hrs, BafA1 10 nM, CQ 20 μM, SPV-94 1 μM): autophagy was successfully terminated
concentration of maximal efficiency, Nurr1-LBD transcriptional activity (Nurr1-LBD [6]; SK-N-BE(2)C cells): 20 µM
pEC50 (Nurr1-LBD [6]; SK-N-BE(2)C cells, read-out: EC50, transcriptional activity of Nurr1-LBD): ~5.00 and 5.00
fold lower concentration of maximal efficiency than CQ, Nurr1-LBD (Nurr1-LBD [6]; versus CQ): 5 fold
DAergic gene expressions downregulated by 6-OHDA toxicity ([7]; 6-OHDA 20 μM, CQ 20 μM, SPV-94 0.5 μM): significant recovery of downregulated DAergic gene expressions
mRNA expression levels of DAergic genes (TH, DAT, AADC, VMAT2, c-Ret, Pitx3) ([7]; CQ 20 μM, SPV-94 0.5 μM, vs vehicle): significantly upregulated mRNA expression levels of DAergic genes
effects on DAergic gene expression in Nurr1 knockdown condition ([7]; Nurr1 KD): disappeared
dyskinesia in the abnormal involuntary movements (AIMs) test [8]: did not trigger dyskinesia
cell viability, MTT reduction assay (MN9D cells [9]; 500 μM MPP+): dose-dependently increased cell viability
protective effect against MPP+-induced toxicity under Nurr1 overexpression (OE) (MN9D cells [9]; CQ 100 μM, SPV-94 1 μM, vs Mock): potentiated protective effects
concentration of maximal efficiency, full-length Nurr1 transcriptional activity (full-length Nurr1; SK-N-BE(2)C cells): 20 µM
pEC50 (full-length Nurr1; SK-N-BE(2)C cells, read-out: EC50, transcriptional activity of full-length Nurr1): ~5.00 and 5.00
fold lower concentration of maximal efficiency than CQ, full-length Nurr1 (full-length Nurr1; versus CQ): 5 fold
autophagy process (LC3B, p62) (HeLa cells): initiated and also terminated autophagy process resulting in significant p62 degradation
relative luciferase activity (transactivity) among selected candidates (Nurr1): markedly highest transactivity among the selected candidates
pEC50 [10]: ~7.30
transcriptional activities of Nurr1-LBD and full-length Nurr1 [10]: enhanced transcriptional activities
suppression of TNFα expression compared to LPS only (BV2 cells): 20.67%
times lower concentration of maximal efficiency than CQ, protection from MPP+-induced cytotoxicity (MN9D cells [11]): 10 times
cell viability, MTT assay (N27-A cells [12]): dose-dependently increased cell viability in MTT assay
olfactory discrimination test (olfaction), sub-acute stage [13]: significantly recovered olfaction
body weight recovery [13, 15]: restored it even earlier, after day 6
cylinder test, rearing numbers, sub-chronic treatment [13, 15]: recovered rearing numbers in the cylinder test
pole test, time to traverse, sub-chronic treatment [13, 15]: reduced time to traverse on a pole
rotarod latency to fall, sub-chronic treatment [13, 15]: significantly improved motor deficits on the rotarod latency to fall
Nurr1-immunoreactive cells ([13]; SNpc): significantly retained Nurr1-immunoreactive cells
GFAP immunoreactivity, activated astrocytes ([13]; STR): reduced number of activated astrocytes
Iba-1+ microglia numbers ([13]; STR and SNpc): significantly reduced numbers of Iba-1+ microglia
TH+ DAergic neurons (counting and densitometry) ([13]; STR, SNpc and OB): significantly restored DAergic neurons
olfactory discrimination test (olfaction), chronic treatment ([13]; day 14): significantly recovered olfaction
rotarod latency to fall, chronic treatment ([13]; day 15): improved latency to fall on the rotarod on day 15
solubility [14]: 504.88 µM (≈ 265 µg/mL)

From patent US20230312510A1, “COMPOUNDS AND METHODS FOR TREATING NEURODEGENERATIVE DISEASES” (The McLean Hospital Corporation, priority 2020, published 2023)
